Experimental data as given in patent US20030060438A1, “Oligonucleotides and other modulators of the NK-1 receptor pathway and therapeutic uses thereof” (priority 2000, published 2003).

Key:
[1] = tested on: NK-1 receptor; assay: Neuropathic pain model (sciatic nerve constriction), mechanical allodynia by von Frey hairs, intrathecal oligonucleotide; format: in vivo, rat
Experimental: Neuropathic pain is a continuous, permanent pain that results from nerve damage. One common feature of neuropathic pain is mechanical allodyina (a painful response to a non-painful stimulus). Humans with neuropathic pain cannot wear clothing on affected regions of the skin or cannot stand in air currents, because their sensitivity is so profound. Neuropathic pain was induced by constriction of the sciatic nerve. Mechanical response thresholds (grams of force) were assessed by application of von Frey hairs to the plantar surface of the ipsilateral hind paw for all groups prior to sciatic nerve constriction surgery (baseline values: B). Oligonucleotides or ASCF control ([…]) via Alzet® minipumps attached to intrathecal catheters for spinal delivery. […] Statistical analyses on mechanical thresholds were performed using the non-parametric Friedman's repeated measures analysis of variance on ranks followed by Wilcoxon signed rank test for post hoc comparisons. […] The lower panel illustrates the mechanical response thresholds are not affected in the contralateral hind paw.
Neuropathic pain was induced by constriction of the sciatic nerve. Mechanical response thresholds (grams of force) were assessed by application of von Frey hairs to the plantar surface of the ipsilateral hind paw for all groups prior to sciatic nerve constriction surgery (baseline values: B). Oligonucleotides or ASCF control ([…]) via Alzet® minipumps attached to intrathecal catheters for spinal delivery.
(§1) Neuropathic pain was induced by constriction of the sciatic nerve. Mechanical response thresholds (grams of force) were assessed by application of von Frey hairs to the plantar surface of the ipsilateral hind paw for all groups prior to sciatic nerve constriction surgery (baseline values: B). Oligonucleotides or ASCF control (artificial cerebral spinal fluid) was administered for 72 h by continuous infusion (2 micro grams/microlitres/h) via Alzet® minipumps attached to intrathecal catheters for spinal delivery starting 6 days following nerve constriction (once the mechanical allodynia was established in all groups).
as §1, with “6 days” for “72 h”, “(0.45” for “(2”, “7” for “6”

[2] = tested on: NK-1 receptor; assay: Mechanical response thresholds in naive rats, intrathecal oligonucleotide; format: in vivo, rat; conditions: no surgery; intrathecal 1 micro grams/microlitres/h, prolonged administration
Experimental: The effect of intrathecal administration of NK-1 receptor antisense oligonucleotide on mechanical response thresholds in naive rats is shown in FIG. 6.
Oligonucleotides or ASCF control (artificial cerebral spinal fluid) were administered for 2 days prior to surgery, and throughout the time course of testing, by continuous infusion (1 micro grams/microlitres/h) via Alzet® minipumps attached to intrathecal catheters for spinal delivery.

[3] = tested on: NK-1 receptor; assay: Formalin test, systemic (intraperitoneal) oligonucleotide; format: in vivo, rat; conditions: 300 micro grams/kg, Q12 h, 6 days prior to testing, vs saline
Experimental: The formalin test produces a biphasic nociceptive behavior that lasts up to one hour that is believed to represent a tonic, persistent pain. The index of nociceptive behavior is assessed based a weighted pain intensity scale, where the animal is given a value of 0 for showing no signs of favoring of the injected paw, 1—favoring of hind paw such that it is resting lightly on the floor, 2—elevation of hind paw, 3—licking or vigorously shaking the hind paw. The numerical ratings were calculated by multiplying the amount of time the rats spent in each category by the weighted factor indicated above for each 5 minute interval over a one hour time period. This was expressed by the following formula: (time spent in category 0*0+time spent in category 1*1+time spent in category 2*2+time spent in category 3*3)/300 seconds. Antisense (AS) oligonucleotide (300 micro grams/kg, Q12 h, intraperitoneal) or saline was administered for 6 days prior to testing. […] Statistical analysis was performed by a two way ANOVA with time and treatment as independent measures. Time: F=9.966, p<0.001, Treatment: F=31.85, p<0.001.

[4] = tested on: NK-1 receptor; assay: CFA arthritis model, joint flexibility, systemic oligonucleotide; format: in vivo, rat; conditions: day 18 after CFA; 300 micro grams/kg, Q12 h, intraperitoneal
Experimental: Complete Freund's Adjuvant (CFA) was injected into the ankle joint of the rat and the flexibility of the affected joint was assessed on day 18 during the arthritic phase of the model. This was accomplished by measuring the difference between the extension and flexion of the affected joint. Antisense (AS) oligonucleotide (300 micro grams/kg, Q12 h, intraperitoneal) or saline was administered for 2 days prior to CFA injection and for the subsequent 18 days. […] Statistical analysis was performed using a one way ANOVA and post hoc analysis using the Dunnett's test.

[5] = tested on: NK-1 receptor; assay: Substance P-induced thermal hyperalgesia, intrathecal oligonucleotide; format: in vivo; conditions: intrathecal 75 micro grams/10 microlitres Q12h with SP
Experimental: The effect of intrathecal (spinal) administration of NK-1 receptor antisense oligonucleotide on substance P-induced thermal hyperalgesia is shown in FIG. 1.
Latency to thermal stimulation (baseline (B) recordings) was assessed prior to intrathecal injection of substance P (SP, indicated by the arrow in both upper and lower panels). On day 0 (before oligonucleotide treatment has begun), SP (6.7 nmol/10 microlitres) produced a decrease in thermal latency to response indicating the occurrence of hyperalgesia (exaggerated response to noxious or painful stimulation, hollow symbols on both upper and lower panels). Oligonucleotide treatment (75 micro grams/10 microlitres, Q12h for 6 days) or ASCF control (artificial cerebral spinal fluid) was commenced subsequent to assessment of substance P-induced thermal hyperalgesia on day 0. Intrathecal SP (6.7 nmol/10 microlitres, Q12h for 6 days) was administered, in addition to the oligonucleotide, to stimulate NK-1 receptor turnover. Three days after twice-daily injections of antisense (AS) were begun, SP-induced thermal hyperalgesia was attenuated (upper graph, triangles). […] Statistical analysis was performed by a two way ANOVA with time and treatment as independent measures. Time: F(6,21)=10.234, p<0.01, Treatment: F(6,21)=8.245, p<0.05.

[6] = tested on: NK-1 receptor; assay: Western blot of NK-1 receptor protein in lumbar spinal cord after intrathecal oligonucleotide, neuropathic pain model; format: in vivo, rat; conditions: intrathecal 2 micro grams/microlitres/h, 48 h prior to sciatic nerve constriction and continuously for 6 days
Experimental: Oligonucleotides or ASCF control (artificial cerebral spinal fluid) was administered for 48 h prior to sciatic nerve constriction and continuously for 6 days (2 micro grams/microlitres/h) via Alzet® minipumps attached to intrathecal catheters for spinal delivery. Rats were sacrificed by decapitation and lumbar spinal cords were dissected and processed for Western blotting analysis. Samples were resolved using 10% Tris-glycine gels and the proteins were electroblotted onto nitrocellulose membranes. Molecular mass markers are presented in the right column. The arrow indicates the NK-1 receptor.

[7] = intrathecal 2 micro grams/microlitres/h for 72 h starting 6 days following nerve constriction

## 5′gac gtt atc cat ttt ggg g3′ (antisense GACGTTATCCATTTTGGGG; listed as DNA, chemistry not fully specified) [NK-1 receptor antisense oligonucleotide used in all experiments]
[1]; intrathecal 0.45 micro grams/microlitres/h for 6 days starting 7 days following nerve constriction
  reversal of established mechanical allodynia, lower dose: had no effect in reversing the decrease in mechanical thresholds
[1]; intrathecal 1 micro grams/microlitres/h from 2 days prior to surgery, catheter just less than 1 cm from lumbar level
  prevention of mechanical allodynia, delivery to sacral rather than lumbar spinal cord: failed to prevent the development of allodynia
[1]; [7]
  mechanical response threshold, contralateral side: no effect
  reversal of established mechanical allodynia, ipsilateral hind paw: reversed allodynia
[1]; intrathecal (lumbar) 1 micro grams/microlitres/h from 2 days prior to sciatic nerve constriction and throughout testing
  mechanical response threshold, ipsilateral hind paw (prevention of mechanical allodynia): did not show a decrease in their threshold of mechanical stimulation
[2]
  mechanical response (withdrawal) threshold of either hind limb in naive rats: had no effect
[3]
  formalin-induced nociceptive scores: nociceptive scores are less
[4]
  joint flexibility (difference between extension and flexion) compared to saline controls: significantly improved flexibility
  joint flexibility compared to naïve animals: not significantly different
[5]; six days after start
  SP-induced thermal hyperalgesia (thermal latency): further decrease in the response to SP
[5]; three days after start
  SP-induced thermal hyperalgesia (thermal latency): attenuated
[6]
  NK-1 receptor protein expression (Western blot) compared to ACSF control: significantly attenuates the protein expression
